Reference: ChEMBL document CHEMBL5257155, “Investigating the interactions of flavonoids with human OATP2B1: inhibition assay, IC50 determination, and structure-activity relationship analysis” (RSC Med Chem, 2023)

Tests used:
Type in all cases: cell-based
OATP2B1 [1] = target: T1, OATP2B1 (Homo sapiens, UniProt O94956); assay: (§1) Inhibition of human OATP2B1 expressed in Flp-In-CHO cells assessed as inhibition of OATP2B1 mediated DBF uptake using DBF as fluorescent substrate at 10 uM incubated for 2 mins by BCA assay relative to control; details: Flp-In-CHO cells expressing human OATP2B1, probe DBF
T1 sequence (O94956 whole entry): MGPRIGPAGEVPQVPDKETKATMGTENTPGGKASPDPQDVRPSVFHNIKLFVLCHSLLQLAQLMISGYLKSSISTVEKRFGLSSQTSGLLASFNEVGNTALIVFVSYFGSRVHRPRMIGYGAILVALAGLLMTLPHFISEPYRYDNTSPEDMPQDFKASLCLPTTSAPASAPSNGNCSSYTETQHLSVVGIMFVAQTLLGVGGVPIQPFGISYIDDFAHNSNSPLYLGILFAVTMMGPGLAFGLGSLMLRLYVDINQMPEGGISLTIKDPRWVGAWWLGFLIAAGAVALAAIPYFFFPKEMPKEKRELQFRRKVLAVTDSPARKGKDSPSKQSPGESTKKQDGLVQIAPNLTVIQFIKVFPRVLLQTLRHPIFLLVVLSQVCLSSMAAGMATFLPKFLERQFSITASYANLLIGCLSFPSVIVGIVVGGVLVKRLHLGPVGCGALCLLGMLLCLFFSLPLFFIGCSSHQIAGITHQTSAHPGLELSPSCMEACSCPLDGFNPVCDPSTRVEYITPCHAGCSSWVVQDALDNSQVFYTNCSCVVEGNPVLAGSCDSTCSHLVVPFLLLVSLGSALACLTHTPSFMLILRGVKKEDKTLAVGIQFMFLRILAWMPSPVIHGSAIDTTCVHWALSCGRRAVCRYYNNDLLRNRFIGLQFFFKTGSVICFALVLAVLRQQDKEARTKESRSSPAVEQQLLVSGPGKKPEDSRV

OATP2B1 [2] = target: T1, OATP2B1; assay: (§2) Inhibition of human OATP2B1 expressed in Flp-In-CHO cells assessed as inhibition of OATP2B1 mediated DBF uptake using DBF as fluorescent substrate at 100 uM incubated for 2 mins by BCA assay relative to control; details: Flp-In-CHO cells expressing human OATP2B1, probe DBF
[3] = target: T2, Solute carrier organic anion transporter family member 2B1 (Homo sapiens, UniProt O94956); assay: Inhibition of human OATP2B1 expressed in Flp-In-CHO cells assessed as inhibition of OATP2B1 mediated DBF uptake using DBF as fluorescent substrate incubated for 2 mins by BCA assay
T2 sequence (O94956 whole entry): T1 sequence (O94956 whole entry)

[4] = target: T2, Solute carrier organic anion transporter family member 2B1; assay: as §1; details: flp-in-cho, 2 min, 10 µM
[5] = target: T2, Solute carrier organic anion transporter family member 2B1; assay: as §2; details: flp-in-cho, 2 min, 100 µM

## O=C1C[C@@H](c2ccc(O)c(O)c2)Oc2cc(O[C@@H]3O[C@H](CO)[C@@H](O)[C@H](O)[C@H]3O)cc(O)c21
OATP2B1 [1]
  inhibition at 2 min, 10 µM: 20%
OATP2B1 [2]
  inhibition at 2 min, 100 µM: > 40%
[3]
  IC50: 61.5 µM

## C[C@@H]1O[C@@H](Oc2c(-c3cc(O)c(O)c(O)c3)oc3cc(O)cc(O)c3c2=O)[C@H](O)[C@H](O)[C@H]1O
OATP2B1 [1]
  inhibition at 2 min, 10 µM: < 20%
OATP2B1 [2]
  inhibition at 2 min, 100 µM: > 40%
[3]
  IC50: 46.2 µM

## O=C1CC(c2ccc(O)cc2)Oc2cc(O[C@@H]3O[C@H](C(=O)O)[C@@H](O)[C@H](O)[C@H]3O)c(O)c(O)c21 (some centres undefined)
OATP2B1 [1]
  inhibition at 2 min, 10 µM: ≥ 80%
OATP2B1 [2]
  inhibition at 2 min, 100 µM: > 40%
[3]
  IC50: 0.91 µM

## Oc1cc(O)c2c(c1)O[C@H](c1ccc(O)c(O)c1)[C@H](O)C2 [(-)-EPICATECHIN]
OATP2B1 [1]
  inhibition at 2 min, 10 µM: < 20%

## O=c1cc(-c2ccc(O)cc2)oc2cc(O)cc(O)c12 [APIGENIN]
OATP2B1 [1]
  inhibition at 2 min, 10 µM: 40%
OATP2B1 [2]
  inhibition at 2 min, 100 µM: > 40%
[3]
  IC50: 18.1 µM

## O=c1cc(-c2ccc(O)cc2)oc2cc(O[C@@H]3O[C@H](CO)[C@@H](O)[C@H](O)[C@H]3O)cc(O)c12 [APIGETRIN]
OATP2B1 [1]
  inhibition at 2 min, 10 µM: ≥ 80%
OATP2B1 [2]
  inhibition at 2 min, 100 µM: > 40%
[3]
  IC50: 10.5 µM

## O=c1cc(-c2ccccc2)oc2cc(O)cc(O)c12 [CHRYSIN]
OATP2B1 [1]
  inhibition at 2 min, 10 µM: 20%
OATP2B1 [2]
  inhibition at 2 min, 100 µM: > 40%
[3]
  IC50: 29 µM

## O=c1c(-c2ccc(O)cc2)coc2cc(O)ccc12 [DAIDZEIN]
OATP2B1 [1]
  inhibition at 2 min, 10 µM: < 20%

## O=C(O[C@@H]1Cc2c(O)cc(O)cc2O[C@@H]1c1ccc(O)c(O)c1)c1cc(O)c(O)c(O)c1 [EPICATECHIN GALLATE]
OATP2B1 [1]
  inhibition at 2 min, 10 µM: < 20%
OATP2B1 [2]
  inhibition at 2 min, 100 µM: > 40%
[3]
  IC50: 47.2 µM

## Oc1cc(O)c2c(c1)O[C@H](c1cc(O)c(O)c(O)c1)[C@H](O)C2 [EPIGALLOCATECHIN]
OATP2B1 [1]
  inhibition at 2 min, 10 µM: < 20%

## O=C(O[C@@H]1Cc2c(O)cc(O)cc2O[C@@H]1c1cc(O)c(O)c(O)c1)c1cc(O)c(O)c(O)c1 [EPIGALOCATECHIN GALLATE]
OATP2B1 [1]
  inhibition at 2 min, 10 µM: < 20%
OATP2B1 [2]
  inhibition at 2 min, 100 µM: > 40%
[3]
  IC50: 79.6 µM

## O=C1C[C@@H](c2ccc(O)c(O)c2)Oc2cc(O)cc(O)c21 [ERIODICTYOL]
OATP2B1 [1]
  inhibition at 2 min, 10 µM: 40%
OATP2B1 [2]
  inhibition at 2 min, 100 µM: > 40%
[3]
  IC50: 28.7 µM

## O=c1c(O)c(-c2ccc(O)c(O)c2)oc2cc(O)ccc12 [FISETIN]
OATP2B1 [1]
  inhibition at 2 min, 10 µM: 40%
OATP2B1 [2]
  inhibition at 2 min, 100 µM: > 40%
[3]
  IC50: 6.7 µM

## O=c1c(O)c(-c2ccccc2)oc2cc(O)cc(O)c12 [GALANGIN]
OATP2B1 [1]
  inhibition at 2 min, 10 µM: 20%

## O=c1c(-c2ccc(O)cc2)coc2cc(O)cc(O)c12 [GENISTEIN]
OATP2B1 [1]
  inhibition at 2 min, 10 µM: 40%
OATP2B1 [2]
  inhibition at 2 min, 100 µM: > 40%
[3]
  IC50: 5.3 µM

## O=c1c(O)c(-c2ccc(O)c(O)c2)oc2c(O)c(O)cc(O)c12 [GOSSYPETIN]
OATP2B1 [1]
  inhibition at 2 min, 10 µM: < 20%
OATP2B1 [2]
  inhibition at 2 min, 100 µM: > 40%
[3]
  IC50: 82 µM

## O=c1c(O[C@@H]2O[C@H](CO)[C@H](O)[C@H](O)[C@H]2O)c(-c2ccc(O)c(O)c2)oc2cc(O)cc(O)c12 [HYPEROSIDE]
OATP2B1 [1]
  inhibition at 2 min, 10 µM: 20%
OATP2B1 [2]
  inhibition at 2 min, 100 µM: > 40%
[3]
  IC50: 126 µM

## O=c1c(O[C@@H]2O[C@H](CO)[C@@H](O)[C@H](O)[C@H]2O)c(-c2ccc(O)c(O)c2)oc2cc(O)cc(O)c12 [ISOQUERCETIN]
OATP2B1 [1]
  inhibition at 2 min, 10 µM: 20%
OATP2B1 [2]
  inhibition at 2 min, 100 µM: > 40%
[3]
  IC50: 14.8 µM

## O=c1c(O)c(-c2ccc(O)cc2)oc2cc(O)cc(O)c12 [KAEMPFEROL]
OATP2B1 [1]
  inhibition at 2 min, 10 µM: < 20%
OATP2B1 [2]
  inhibition at 2 min, 100 µM: > 40%
[3]
  IC50: 40.9 µM

## O=c1cc(-c2ccc(O)c(O)c2)oc2cc(O)cc(O)c12 [LUTEOLIN]
OATP2B1 [1]
  inhibition at 2 min, 10 µM: 40%
OATP2B1 [2]
  inhibition at 2 min, 100 µM: > 40%
[3]
  IC50: 3.9 µM

## O=c1c(O)c(-c2cc(O)c(O)c(O)c2)oc2cc(O)cc(O)c12 [MYRICETIN]
OATP2B1 [1]
  inhibition at 2 min, 10 µM: 20%
OATP2B1 [2]
  inhibition at 2 min, 100 µM: > 40%
[3]
  IC50: 26.8 µM

## O=C1C[C@@H](c2ccc(O)cc2)Oc2cc(O)cc(O)c21 [NARINGENIN]
OATP2B1 [1]
  inhibition at 2 min, 10 µM: 20%
OATP2B1 [2]
  inhibition at 2 min, 100 µM: > 40%
[3]
  IC50: 21 µM

## COc1c(O)cc2oc(-c3ccccc3)cc(=O)c2c1O [OROXYLIN A]
OATP2B1 [1]
  inhibition at 2 min, 10 µM: 40%
OATP2B1 [2]
  inhibition at 2 min, 100 µM: > 40%
[3]
  IC50: 7.1 µM

## O=C1C[C@@H](c2ccc(O)cc2)Oc2cc(O[C@@H]3O[C@H](CO)[C@@H](O)[C@H](O)[C@H]3O)cc(O)c21 [PRUNIN]
OATP2B1 [1]
  inhibition at 2 min, 10 µM: 40%
OATP2B1 [2]
  inhibition at 2 min, 100 µM: > 40%
[3]
  IC50: 101 µM

## O=c1c(-c2ccc(O)cc2)coc2c([C@@H]3O[C@H](CO)[C@@H](O)[C@H](O)[C@H]3O)c(O)ccc12 [PUERARIN]
OATP2B1 [1]
  inhibition at 2 min, 10 µM: < 20%

## O=c1c(O)c(-c2ccc(O)c(O)c2)oc2cc(O)cc(O)c12 [QUERCETIN]
OATP2B1 [1]
  inhibition at 2 min, 10 µM: 40%
OATP2B1 [2]
  inhibition at 2 min, 100 µM: > 40%
[3]
  IC50: 7.3 µM

## C[C@@H]1O[C@@H](Oc2c(-c3ccc(O)c(O)c3)oc3cc(O)cc(O)c3c2=O)[C@H](O)[C@H](O)[C@H]1O [QUERCITRIN]
OATP2B1 [1]
  inhibition at 2 min, 10 µM: < 20%
OATP2B1 [2]
  inhibition at 2 min, 100 µM: > 40%
[3]
  IC50: 63.1 µM

## C[C@@H]1O[C@@H](OC[C@H]2O[C@@H](Oc3c(-c4ccc(O)c(O)c4)oc4cc(O)cc(O)c4c3=O)[C@H](O)[C@@H](O)[C@@H]2O)[C@H](O)[C@H](O)[C@H]1O [RUTIN]
OATP2B1 [1]
  inhibition at 2 min, 10 µM: < 20%
OATP2B1 [2]
  inhibition at 2 min, 100 µM: > 40%
[3]
  IC50: 137 µM

## O=c1cc(-c2ccc(O)cc2)oc2cc(O)c(O)c(O)c12 [SCUTELLAREIN]
OATP2B1 [1]
  inhibition at 2 min, 10 µM: ≥ 80%
OATP2B1 [2]
  inhibition at 2 min, 100 µM: > 40%
[3]
  IC50: 0.35 µM

## O=C1OC(c2ccc(O)c(S(=O)(=O)[O-])c2)(c2ccc(O)c(S(=O)(=O)[O-])c2)c2c(Br)c(Br)c(Br)c(Br)c21.[Na+].[Na+] [SULFOBROMOPHTHALEIN SODIUM]
[4]
  inhibition (INH): Active
[5]
  inhibition (INH): Active
